The numbers were not newly measured in patent publication US5308833A, “Method for treating hepatitis B carriers with minimal disease” (SciClone Pharmaceuticals, priority 1992, dated 1994), which cites them from elsewhere.

Series [1] relates to lymphocyte. The conditions noted are these: individuals suffering from chronic active hepatitis B.
In series [2] the test system is hepatitis B virus.

Where no end group is shown, it is not given here.

With “thymosin α-1 (SDAAVDTSSEITTKDLKEKKEVVEEAEN; ends and bridges not checked; UniProt P06454 2-29, looked up) [28 amino acid peptide originally isolated from calf thymus thymosin fraction 5]”, in series [1], the lymphocyte counts entry was “increases in lymphocyte counts” and the “production of γ-interferon” value is given as “enhance production of γ-interferon”. Besides, the “hepatitis B virus DNA in serum” value in series [2] (patients with chronic active hepatitis B administered the peptide) is listed as “cleared hepatitis B virus DNA from serum”. Moreover, in series [2] (patients with chronic active hepatitis B, after treatment was terminated), the “serum HBV DNA after treatment was terminated” value is “tested persistently negative for serum HBV DNA”.
